Data set [1] in a line: Determination of bio-accumulation: urinary clearance pharmacokinetic study in rats. Conditions: male Sprague Dawley rats, 73 micro Moles per kg, oral gavage; for Compound-related Effects: clinical signs of toxicity and gross necropsy at 96 hours post-dose; for % Recovery (96 h): recovery of compound in urine 96 h post-dose; for T ½: renal (urinary) elimination half-life, parent compound in urine by fluorine NMR, exponential least squares curve fitting.
Experimental: (§1) The perfluorinated and partially fluorinated carboxylates were evaluated for urinary clearance using a pharmacokinetic study in rats. The goal was to measure the total amount of parent compound eliminated via urinary output and estimate the rate of elimination.
(§2) The study utilized male Sprague Dawley rats, 6 to 8 weeks of age, and approximately 200 to 250 g body weight at study onset. The test compounds of Table 2 were administered at a dose of 73 micro Moles per kg body weight in rats (N=3 animals per tested compound). All test compounds were prepared in sterile deionized water and given to rats via oral gavage. After test compound administration, the rats were housed individually in metabolism cages for urine collection: 0 to 6 hours, 6 to 24 hours, 24 to 48 hours and 72 to 96 hours. Animals were observed throughout the study for clinical signs of toxicity. Gross necropsy was performed at the termination of each study (96 hours post-dose) with sera and liver samples being retained from each animal.
(§3) The concentration of the parent compound or metabolites thereof were quantitatively measured via fluorine NMR on each urine sample for each animal at each time point based on internally added standards.
(§4) In Table 2, T1/2 is the time required for the amount of a particular substance in a biological system to be reduced to one half of its value by biological processes when the rate of removal is approximately exponential. In these examples the value of T1/2 is calculated by exponential least squares curve fitting (y=AeBX and T1/2=0.693/B) where y represents the concentration of analyte in urine and x represents time in hours.

For data set [2] the following is noted: rat, in vivo, po.
Experimental: as §1, §2, §3, §4

Where two headings read alike, the source gives them in different places.

Take `N.O=C(O)C(F)(F)C(F)(F)OC(F)(F)C(F)(F)C(F)(F)C(F)(F)F` [Example 1, C4F9—O—CF2—CF2—COONH4]: in data set [1], the “Compound-related Effects” value is “Hepatomegaly”, the “% Recovery (96 h)” value is 42% and the “T ½” value was found to be 1.29 days.

As for `N.O=C(O)C(F)(F)C(F)(F)C(F)(F)C(F)(F)C(F)(F)OC(F)C(F)(F)F` (centres unmarked) [Example 3, CF3—CFH—O—(CF2)5—COONH4], the “Compound-related Effects” value in data set [2] is on record as “Hepatomegaly”.

As to `N.O=C(O)C(F)(F)C(F)(F)C(F)(F)C(F)(F)C(F)(F)C(F)(F)C(F)(F)F` [Example C1, CF3(CF2)6COONH4], in data set [1], the “Compound-related Effects” value was “Hepatomegaly”, the “% Recovery (96 h)” value turned out to be 6% and the “T ½” value was approximately 22.9 days.

Consider `N.O=C(O)C(F)(F)OC(F)(F)C(F)(OC(F)(F)C(F)(F)C(F)(F)F)C(F)(F)F` (centres unmarked) [Example C2, CF3CF2CF2OCF(CF3)CF2OCF2COONH4], for which the “Compound-related Effects” value in data set [2] is “Hepatomegaly”.

The values above are taken from patent US20070276103A1, “Fluorinated Surfactants” (3M Innovative Properties Company, priority 2006, published 2007).
